Consider 34 molecules from US20220332699A1 (SAGE THERAPEUTICS, INC., priority 2019, published 2022).

Molecules are shown by their SMILES. Bounds are passed on as bounds.

Sequence of CYP46A1 (Q9Y6A2 whole entry): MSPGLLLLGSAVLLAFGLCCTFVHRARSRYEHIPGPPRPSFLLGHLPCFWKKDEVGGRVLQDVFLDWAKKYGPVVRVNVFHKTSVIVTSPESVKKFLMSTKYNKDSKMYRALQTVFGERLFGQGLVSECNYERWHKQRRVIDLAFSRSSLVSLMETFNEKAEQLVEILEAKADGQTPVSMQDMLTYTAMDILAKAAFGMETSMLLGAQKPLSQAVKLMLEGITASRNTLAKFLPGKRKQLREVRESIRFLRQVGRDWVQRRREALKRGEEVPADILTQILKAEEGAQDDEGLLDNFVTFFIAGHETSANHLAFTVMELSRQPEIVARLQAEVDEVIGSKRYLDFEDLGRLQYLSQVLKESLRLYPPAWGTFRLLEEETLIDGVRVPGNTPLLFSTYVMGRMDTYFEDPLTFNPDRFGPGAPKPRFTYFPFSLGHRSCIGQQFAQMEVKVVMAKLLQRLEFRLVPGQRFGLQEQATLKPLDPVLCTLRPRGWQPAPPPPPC

This test has as its target CYP46A1 (Homo sapiens, UniProt Q9Y6A2). In words: CYP46A1 Enzyme Assay 2 (testosterone substrate, HPLC-MS). In kind it is biochemical. The note with it: read-out: IC50 (CYP46A1 inhibitory activity). As for the experimental part:
Briefly, in a 384-well plate format, 10 μL per well of an enzyme-substrate mixture of CYP46A1 (5 μM final concentration) and Testosterone ([…] final concentration) were dispensed to wells containing test compound. For CYP46A1 titration, 5 μL per well of serially diluted CYP46A1 (concentrations including 10 μM, 5 μM, and 2.5 μM) and Testosterone (concentration of […]) were dispensed. For Testosterone titration, 5 μL per well of serially diluted Testosterone (concentrations including 10 μM, 5 μM, and 2.5 μM) and CYP46A1 (concentration of 5 μM) were dispensed. The plates were centrifuged at 1000 rpm for 30 seconds, and then sealed and incubated at 37° C. for 30 minutes. The plate was removed from the incubator, and then 10 μL per well of NADPH-generating system were dispensed to initiate the reaction. The plates were incubated at 37° C. for 15 minutes, added with 80 μL per well of 100% methanol consisting 1 ng/ml diclofenac as internal standard, and then transferred for HPLC-MS.
Take `CC(c1c(F)cc(F)cc1F)C1(C#N)CCN(C(=O)c2cccnc2-c2ccncn2)CC1` (stereo in doubt) [Compound A270, (S)-1-(2-(pyrimidin-4-yl)nicotinoyl)-4-(1-(2,4,6-trifluorophenyl)ethyl)piperidine-4-carbonitrile]: the IC50 was under 0.1 µM.
In the case of `CC[C@H](c1ccc(F)cc1)C1(C#N)CCN(C(=O)c2cccnc2-c2ccncn2)CC1` [Compound A215, (R)-4-(1-(4-fluorophenyl)propyl)-1-(2-(pyrimidin-4-yl)nicotinoyl)piperidine-4-carbonitrile], the 50% inhibitory concentration (IC50) was under 0.1 µM.
In the case of `Cc1ccc(C(=O)N2CCC(C#N)(Cc3ccc(F)cc3)CC2)c(-c2ccncn2)n1` [Compound A249, 4-(4-fluorobenzyl)-1-(6-methyl-2-(pyrimidin-4-yl)nicotinoyl)piperidine-4-carbonitrile] it was over 1 µM; in that of `CS(=O)(=O)c1ccc(CC2(C#N)CCN(C(=O)c3cccnc3-c3ccncn3)CC2)cc1` [Compound A204, 4-(4-(methylsulfonyl)benzyl)-1-(2-(pyrimidin-4-yl)nicotinoyl)piperidine-4-carbonitrile], 0.1 to 1 µM.
The value for `N#CC1(Cc2ccccc2C(F)(F)F)CCN(C(=O)c2cccnc2-c2ccncc2)CC1` [Compound A275, 1-([2,4′-bipyridine]-3-carbonyl)-4-(2-(trifluoromethyl)benzyl)piperidine-4-carbonitrile] was under 0.1 µM; that for `N#CC1(Cc2ccc(F)cc2)CCN(C(=O)c2ccc(F)cc2-c2ccncn2)CC1` [Compound A220, 1-(4-fluoro-2-(pyrimidin-4-yl)benzoyl)-4-(4-fluorobenzyl)piperidine-4-carbonitrile] was under 0.1 µM.
In the case of `N#CC1(Cc2cc(F)cc(F)c2)CCN(C(=O)c2cccnc2-c2ccncn2)CC1` [Compound A213, 4-(3,5-difluorobenzyl)-1-(2-(pyrimidin-4-yl)nicotinoyl)piperidine-4-carbonitrile] it was under 0.1 µM; in that of `N#CC1(Cc2ccc(Cl)cc2F)CCN(C(=O)c2cccnc2-c2ccncn2)CC1` [Compound A205, 4-(4-chloro-2-fluorobenzyl)-1-(2-(pyrimidin-4-yl)nicotinoyl)piperidine-4-carbonitrile], under 0.1 µM.
For `N#CC1(Cc2c(F)cc(C(F)(F)F)cc2F)CCN(C(=O)c2cccnc2-c2ccncn2)CC1` [Compound A281, 4-(2,6-difluoro-4-(trifluoromethyl)benzyl)-1-(2-(pyrimidin-4-yl)nicotinoyl)piperidine-4-carbonitrile], the IC50 is under 0.1 µM.
As to `N#CC1(Cc2ccc(F)cc2)CCN(C(=O)c2cccnc2-c2ccnnc2)CC1` [Compound A200, 4-(4-fluorobenzyl)-1-(2-(pyridazin-4-yl)nicotinoyl)piperidine-4-carbonitrile], the 50% inhibitory concentration (IC50) was over 1 µM.
In the case of `N#CC1(Cc2ccc(Cl)cc2F)CCN(C(=O)c2cccnc2-c2ccncc2)CC1` [Compound A11, 1-{[2,4′-bipyridine]-3-carbonyl}-4-[(4-chloro-2-fluorophenyl)methyl]piperidine-4-carbonitrile] it was under 0.1 µM.
For the molecule `C[C@@H](c1ccc(F)cc1F)C1(C#N)CCN(C(=O)c2cccnc2-c2ccncn2)CC1` [Compound A242, (R)-4-(1-(2,4-difluorophenyl)ethyl)-1-(2-(pyrimidin-4-yl)nicotinoyl)piperidine-4-carbonitrile], the IC50 is under 0.1 µM.
In the case of `N#CC1(Cc2ccc(F)cc2F)CCN(C(=O)c2cccnc2-c2ccncn2)CC1` [Compound A51, 4-(2,4-difluorobenzyl)-1-(2-(pyrimidin-4-yl)nicotinoyl)piperidine-4-carbonitrile] it was under 0.1 µM; in that of `N#CC1(CC2CCOCC2)CCN(C(=O)c2cccnc2-c2ccncn2)CC1` [Compound A48, 1-(2-(pyrimidin-4-yl)nicotinoyl)-4-((tetrahydro-2H-pyran-4-yl)methyl)piperidine-4-carbonitrile], 0.1 to 1 µM; in that of `N#CC1(Cc2ccc(F)cc2C(F)(F)F)CCN(C(=O)c2cccnc2-c2ccncc2)CC1` [Compound A277, 1-([2,4′-bipyridine]-3-carbonyl)-4-(4-fluoro-2-(trifluoromethyl)benzyl)piperidine-4-carbonitrile], under 0.1 µM.
Turning to `N#CC1(Cc2ccc3ccccc3c2)CCN(C(=O)c2cccnc2-c2ccncn2)CC1` [Compound A224, 4-(naphthalen-2-ylmethyl)-1-(2-(pyrimidin-4-yl)nicotinoyl)piperidine-4-carbonitrile], the IC50 is under 0.1 µM.
As for `C[C@H](c1ccc(C(F)(F)F)cc1)C1(C#N)CCN(C(=O)c2cccnc2-c2ccncn2)CC1` [Compound A251, (R)-1-(2-(pyrimidin-4-yl)nicotinoyl)-4-(1-(4-(trifluoromethyl)phenyl)ethyl)piperidine-4-carbonitrile], the IC50 is under 0.1 µM.
The value for `N#CC1(Cc2cccc(C(F)(F)F)c2F)CCN(C(=O)c2cccnc2-c2ccncn2)CC1` [Compound A265, 4-(2-fluoro-3-(trifluoromethyl)benzyl)-1-(2-(pyrimidin-4-yl)nicotinoyl)piperidine-4-carbonitrile] was under 0.1 µM.
For `Cc1ccc(CC2(C#N)CCN(C(=O)c3cccnc3-c3ccncn3)CC2)cc1` [Compound A35, 4-(4-methylbenzyl)-1-(2-(pyrimidin-4-yl)nicotinoyl)piperidine-4-carbonitrile], the IC50 is under 0.1 µM.
For the molecule `N#CC1(Cc2ccc(C(F)(F)F)cc2F)CCN(C(=O)c2cccnc2-c2ccncn2)CC1` [Compound A240, 4-(2-fluoro-4-(trifluoromethyl)benzyl)-1-(2-(pyrimidin-4-yl)nicotinoyl)piperidine-4-carbonitrile], the IC50 was under 0.1 µM.
For `N#CC1(Cc2cccc(Cl)c2)CCN(C(=O)c2cccnc2-c2ccncc2)CC1` [Compound A22], the half-maximal inhibitory concentration (IC50) was under 0.1 µM.
Take `N#CC1(CC2CC2)CCN(C(=O)c2cccnc2-c2ccncn2)CC1` [Compound A58, 4-(cyclopropylmethyl)-1-(2-(pyrimidin-4-yl)nicotinoyl)piperidine-4-carbonitrile]: the concentration for half-maximal inhibition (IC50) fell in the range of 0.1 to 1 µM.
As to `N#CC1(Cc2ccc(F)cc2)CCN(C(=O)c2cc(Cl)ccc2-c2ccncn2)CC1` [Compound A234, 1-(5-chloro-2-(pyrimidin-4-yl)benzoyl)-4-(4-fluorobenzyl)piperidine-4-carbonitrile], the concentration for half-maximal inhibition (IC50) is under 0.1 µM.
In the case of `C[C@@H](c1ccc(C(F)(F)F)cc1F)C1(C#N)CCN(C(=O)c2cccnc2-c2ccncn2)CC1` [Compound A286, (R)-4-(1-(2-fluoro-4-(trifluoromethyl)phenyl)ethyl)-1-(2-(pyrimidin-4-yl)nicotinoyl)piperidine-4-carbonitrile] it was under 0.1 µM.
The value for `COc1ccc(CC2(C#N)CCN(C(=O)c3cccnc3-c3ccncn3)CC2)cn1` [Compound A202, 4-((6-methoxypyridin-3-yl)methyl)-1-(2-(pyrimidin-4-yl)nicotinoyl)piperidine-4-carbonitrile] was under 0.1 µM.
As for `N#CC1(Cc2ccc(C(F)(F)F)cc2)CCN(C(=O)c2cccnc2-c2ccncn2)CC1` [Compound A40, 1-(2-(pyrimidin-4-yl)nicotinoyl)-4-(4-(trifluoromethyl)benzyl)piperidine-4-carbonitrile], the concentration for half-maximal inhibition (IC50) was under 0.1 µM.
In the case of `N#CC1(Cc2ccccc2Cl)CCN(C(=O)c2cccnc2-c2ccncc2)CC1` [Compound A21, 1-([2,4′-bipyridine]-3-carbonyl)-4-(2-chlorobenzyl)piperidine-4-carbonitrile] it was under 0.1 µM.
Take `Cc1ncc(CC2(C#N)CCN(C(=O)c3cccnc3-c3ccncn3)CC2)cn1` [Compound A203, 4-((2-methylpyrimidin-5-yl)methyl)-1-(2-(pyrimidin-4-yl)nicotinoyl)piperidine-4-carbonitrile]: the IC50 was over 1 µM.
Regarding `N#CC1(Cc2cccnc2)CCN(C(=O)c2cccnc2-c2ccncc2)CC1` [Compound A72, 1-{[2,4′-bipyridine]-3-carbonyl}-4-[(pyridin-3-yl)methyl]piperidine-4-carbonitrile], the half-inhibitory concentration (IC50) is 0.1 to 1 µM.
As to `N#CC1(Cc2ccc(F)c(F)c2)CCN(C(=O)c2cccnc2-c2ccncc2)CC1` [Compound A69, 1-([2,4′-bipyridine]-3-carbonyl)-4-(3,4-difluorobenzyl)piperidine-4-carbonitrile], the IC50 is under 0.1 µM.
In the case of `CC(c1ccc(C(F)(F)F)cc1)C1(C#N)CCN(C(=O)c2cccnc2-c2ccncc2)CC1` (stereo in doubt) [Compound A268, (R)-1-([2,4′-bipyridine]-3-carbonyl)-4-(1-(4-(trifluoromethyl)phenyl)ethyl)piperidine-4-carbonitrile] it was under 0.1 µM.
In the case of `N#CC1(Cc2cccc(C(F)(F)F)c2F)CCN(C(=O)c2cccnc2-c2ccncc2)CC1` [Compound A266, 1-([2,4′-bipyridine]-3-carbonyl)-4-(2-fluoro-3-(trifluoromethyl)benzyl)piperidine-4-carbonitrile], the IC50 was under 0.1 µM.
In the case of `C[C@H](c1ccc(C(F)(F)F)cc1F)C1(C#N)CCN(C(=O)c2cccnc2-c2ccncn2)CC1` [Compound A287, (S)-4-(1-(2-fluoro-4-(trifluoromethyl)phenyl)ethyl)-1-(2-(pyrimidin-4-yl)nicotinoyl)piperidine-4-carbonitrile] it was under 0.1 µM; in that of `N#CC1(Cc2cccc(C(F)(F)F)c2)CCN(C(=O)c2cccnc2-c2ccncc2)CC1` [Compound A279, 1-([2,4′-bipyridine]-3-carbonyl)-4-(3-(trifluoromethyl)benzyl)piperidine-4-carbonitrile], under 0.1 µM.
